Common to all, as to assay type: in vivo, Sprague-Dawley rats
In one experiment the test system is KA-induced seizures. Description: kainic acid (KA)-induced epilepsy model in animals, epileptic behavior by Racine scale. The conditions noted are these: for Death: dead/total rats; for Seizure %: share of rats with seizures; for Seizure stage: then KA 15 mg/kg i.p., Racine scale within 4 hours. Here is the method:
Male Sprague-Dawley rats (SD rat, 150-200 g) were purchased from BioLASCO (Taiwan) and bred in Fu Jen Laboratory Animal Center. All animal experiments were approved by the IACUC of Fu Jen Catholic University. According to the 3R principles, all experiments were performed to minimize animal suffering and use the minimum number of animals necessary to produce reliable results.
The antiepileptic effect of the birch sap extract was evaluated using kainic acid (KA)-induced epilepsy model in animals. KA is an analogue of glutamate, and injection of KA into rats will increase the release of glutamate and overactivate glutamate receptors, resulting in progressive limbic seizures in rats. This phenomenon leads to increased calcium ions in nerve cells, oxidative stress, and loss of mitochondrial function, resulting in the death of nerve cells in many areas of the brain, especially in the cerebral cortex and hippocampus. In addition, KA-induced neuronal cell death is related to glial cell activation and inflammatory response caused by inflammatory molecules, such as interleukin-1β (IL-1β), interleukin-6 (IL-6), tumor necrosis factor-α (TNF-α), high mobility group Box 1 (HMGB1), interleukin 1 receptor 1 (IL-1R1), and Toll-like receptor-4 (TLR-4).
Epileptic behavioral expressions were analyzed within 4 hours after intraperitoneal injection of KA in rats.
Sprague-Dawley rats were divided into the following groups according to the administration of different test substances: • 1. Negative control group: normal saline • 2. KA group: 15 mg/kg/i.p./single dose of kainic acid (KA) • 3. Low-dose group of birch sap extract: 6 mg/kg of birch sap extract • 4. High-dose group of birch sap extract: 10 mg/kg of birch sap extract • 5. High-dose group of antiepileptic drug: 100 mg/kg of carbamazepine (CBZ) • 6. Antiepileptic pharmaceutical combination group: 6 mg/kg of birch sap extract and 50 mg/kg of CBZ • 7. Low-dose group of antiepileptic drug: 50 mg/kg of CBZ
The control group, birch sap extract groups, antiepileptic drug groups, and antiepileptic pharmaceutical combination group were fed with normal saline, birch sap extract and/or CBZ through feeding tubes at regular intervals every day. One week later, except for the negative control group, rats in each group were intraperitoneally injected with KA (15 mg/kg/i.p./single dose), and the dose of KA injection was based on the previous study. The epileptic behavior of rats was analyzed according to Racine scale (1972) within 4 hours after intraperitoneal injection of KA.

For experiment [1], the system named is cerebral cortex and hippocampus CA1/CA3 nerve cells. As to the kind of experiment: Nissl staining of brain tissue after KA injection. The conditions noted are these: pretreatment; three days after KA 15 mg/kg i.p.; p<0.05 vs KA group. The protocol: (§1) Continuing from Example 3, the experimental animals in each group were sacrificed three days after intraperitoneal injection of KA (15 mg/kg), and the brain tissues were taken out for sectioning and other relevant experimental analysis.

In experiment [2] the test system is CA1/CA3 degenerative cells in the cerebral cortex and hippocampus. As to the kind of experiment: Fluoro-Jade B (FJB) staining of brain tissue after KA injection. The conditions noted are these: pretreatment; three days after KA 15 mg/kg i.p.; p<0.05 vs KA group. Here is the method: as §1
This phenomenon can also be reduced by the pretreatment with the birch sap extract and betulin (p<0.05; FIGS. 4A and 4B).

The record followed here is patent US20250049871A1, “PHARMACEUTICAL COMBINATION FOR TREATING OR PREVENTING EPILEPSY AND THE USE THEREOF” (priority 2023, published 2025).

Turning to `NC(=O)N1c2ccccc2C=Cc2ccccc21` [CBZ, carbamazepine], the results for the Death with KA-induced seizures (CBZ 50 mg/kg + KA) and with KA-induced seizures (CBZ 100 mg/kg + KA) were 0/3 and 1/11, respectively. The “Latency to first seizure” value stood at 89 ± 17 min in the experiment with KA-induced seizures (CBZ 50 mg/kg + KA, mean ± SEM) and 140 min in the experiment on KA-induced seizures (CBZ 100 mg/kg + KA). For the same compound, the values for the Seizure % with KA-induced seizures (CBZ 50 mg/kg + KA) and in the experiment with KA-induced seizures (CBZ 100 mg/kg + KA) were 66% and 10%, respectively. In addition, the Seizure stage with KA-induced seizures (CBZ 50 mg/kg oral daily for one week, mean ± SEM) is 3.6 ± 0.3; in the experiment on KA-induced seizures (CBZ 100 mg/kg oral daily for one week, mean ± SEM), 0.9 ± 0.5. Moreover, the “time and severity of seizures compared with the KA group” value in the experiment with KA-induced seizures (low-dose group of antiepileptic drug, CBZ 50 mg/kg) is on record as “not statistically different”.

On to `C=C(C)[C@@H]1CC[C@]2(CO)CC[C@]3(C)[C@H](CC[C@@H]4[C@@]5(C)CC[C@H](O)C(C)(C)[C@@H]5CC[C@]43C)[C@@H]12` [betulin], for which, in experiment [1], the “number of neurocytes in cerebral cortex and hippocampus CA1/CA3 (Nissl staining)” value is recorded as “reduce the decrease in the number of neurocytes”. Moreover, the “number of CA1/CA3 degenerative cells in the cerebral cortex and hippocampus (FJB staining)” value in experiment [2] was “reduced”.
